{"source": "PubChem BioAssay AID2060898", "about": "(Molecular Pharmacology Branch, DTP, NCI, 2025)", "system": "616215-338-R-J1-PDC complex spheroid viability", "assay": "Anticancer human tumor 616215-338-R-J1-PDC patient-derived colon adenocarcinoma cell line growth inhibition [RAS]", "conditions": "for pIC50: curve of first compound; for viability, T/C: stronger effect = lower value", "summary_of_the_method": "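Tumour cells grown as complex spheroids with HUVEC endothelial cells and mesenchymal stem cells, treated with RAS pathway inhibitor combinations. Each agent spans half-log steps from near clinical Cmax, or 10 microM where Cmax is unknown.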", "note": "pIC50: −log10 of the molar value.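 Note: spheroids exposed to agents for seven days before viability readout.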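 Throughout, for viability, T/C: 100% = DMSO vehicle control viability.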"}
{"smiles": "C=CC(=O)N1CCN(c2nc(OCC3CCCN3C)nc3c(F)c(-c4nc(N)cc(C)c4C(F)(F)F)c(Cl)cc23)C(C)C1", "note": "(configuration not stated) + CCn1c(-c2cccnc2C(C)OC)c2c3cc(ccc31)N1CCOC(CC(NC(=O)C(C(C)C)N(C)C(=O)C3(F)CCN(C(=O)C#CC(C)(C)N(C)C)CC3)C(=O)N3CCCC(N3)C(=O)OCC(C)(C)C2)C1", "values": [{"measurement": "pIC50", "setting": "second compound 0.000949 µM", "value": "< 6.00"}, {"measurement": "pIC50", "setting": "second compound 0.003 µM", "value": "< 6.00"}, {"measurement": "pIC50", "setting": "second compound 0.00949 µM", "value": "< 6.00"}, {"measurement": "pIC50", "setting": "second compound 0.03 µM", "value": "< 6.00"}, {"measurement": "pIC50", "setting": "second compound 0.0949 µM", "value": "< 6.00"}, {"measurement": "pIC50", "setting": "second compound 0.3 µM", "value": "< 6.00"}, {"measurement": "viability, T/C", "setting": "second compound 0.000949 µM, first compound 0.00316 µM", "value": 106, "unit": "%"}, {"measurement": "viability, T/C", "setting": "second compound 0.000949 µM, first compound 0.01 µM", "value": 100, "unit": "%"}, {"measurement": "viability, T/C", "setting": "second compound 0.000949 µM, first compound 0.0316 µM", "value": 106, "unit": "%"}, {"measurement": "viability, T/C", "setting": "second compound 0.000949 µM, first compound 0.1 µM", "value": 108, "unit": "%"}, {"measurement": "viability, T/C", "setting": "second compound 0.000949 µM, first compound 0.316 µM", "value": 115, "unit": "%"}, {"measurement": "viability, T/C", "setting": "second compound 0.000949 µM, first compound 1 µM", "value": 103, "unit": "%"}, {"measurement": "viability, T/C", "setting": "second compound 0.003 µM, first compound 0.00316 µM", "value": 103, "unit": "%"}, {"measurement": "viability, T/C", "setting": "second compound 0.003 µM, first compound 0.01 µM", "value": 114, "unit": "%"}, {"measurement": "viability, T/C", "setting": "second compound 0.003 µM, first compound 0.0316 µM", "value": 100, "unit": "%"}, {"measurement": "viability, T/C", "setting": "second compound 0.003 µM, first compound 0.1 µM", "value": 111, "unit": "%"}, {"measurement": "viability, T/C", "setting": "second compound 0.003 µM, first compound 0.316 µM", "value": 116, "unit": "%"}, {"measurement": "viability, T/C", "setting": "second compound 0.003 µM, first compound 1 µM", "value": 101, "unit": "%"}, {"measurement": "viability, T/C", "setting": "second compound 0.00949 µM, first compound 0.00316 µM", "value": 106, "unit": "%"}, {"measurement": "viability, T/C", "setting": "second compound 0.00949 µM, first compound 0.01 µM", "value": 101, "unit": "%"}, {"measurement": "viability, T/C", "setting": "second compound 0.00949 µM, first compound 0.0316 µM", "value": 106, "unit": "%"}, {"measurement": "viability, T/C", "setting": "second compound 0.00949 µM, first compound 0.1 µM", "value": 104, "unit": "%"}, {"measurement": "viability, T/C", "setting": "second compound 0.00949 µM, first compound 0.316 µM", "value": 106, "unit": "%"}, {"measurement": "viability, T/C", "setting": "second compound 0.00949 µM, first compound 1 µM", "value": 100, "unit": "%"}, {"measurement": "viability, T/C", "setting": "second compound 0.03 µM, first compound 0.00316 µM", "value": 118, "unit": "%"}, {"measurement": "viability, T/C", "setting": "second compound 0.03 µM, first compound 0.01 µM", "value": 110, "unit": "%"}, {"measurement": "viability, T/C", "setting": "second compound 0.03 µM, first compound 0.0316 µM", "value": 105, "unit": "%"}, {"measurement": "viability, T/C", "setting": "second compound 0.03 µM, first compound 0.1 µM", "value": 115, "unit": "%"}, {"measurement": "viability, T/C", "setting": "second compound 0.03 µM, first compound 0.316 µM", "value": 101, "unit": "%"}, {"measurement": "viability, T/C", "setting": "second compound 0.03 µM, first compound 1 µM", "value": 98.6, "unit": "%"}, {"measurement": "viability, T/C", "setting": "second compound 0.0949 µM, first compound 0.00316 µM", "value": 135, "unit": "%"}, {"measurement": "viability, T/C", "setting": "second compound 0.0949 µM, first compound 0.01 µM", "value": 113, "unit": "%"}, {"measurement": "viability, T/C", "setting": "second compound 0.0949 µM, first compound 0.0316 µM", "value": 109, "unit": "%"}, {"measurement": "viability, T/C", "setting": "second compound 0.0949 µM, first compound 0.1 µM", "value": 127, "unit": "%"}, {"measurement": "viability, T/C", "setting": "second compound 0.0949 µM, first compound 0.316 µM", "value": 126, "unit": "%"}, {"measurement": "viability, T/C", "setting": "second compound 0.0949 µM, first compound 1 µM", "value": 116, "unit": "%"}, {"measurement": "viability, T/C", "setting": "second compound 0.3 µM, first compound 0.00316 µM", "value": 117, "unit": "%"}, {"measurement": "viability, T/C", "setting": "second compound 0.3 µM, first compound 0.01 µM", "value": 108, "unit": "%"}, {"measurement": "viability, T/C", "setting": "second compound 0.3 µM, first compound 0.0316 µM", "value": 107, "unit": "%"}, {"measurement": "viability, T/C", "setting": "second compound 0.3 µM, first compound 0.1 µM", "value": 112, "unit": "%"}, {"measurement": "viability, T/C", "setting": "second compound 0.3 µM, first compound 0.316 µM", "value": 113, "unit": "%"}, {"measurement": "viability, T/C", "setting": "second compound 0.3 µM, first compound 1 µM", "value": 107, "unit": "%"}]}
